Series [1] concerns the target T1, tryptophan 2,3-dioxygenase (TDO2) (Homo sapiens, UniProt P48775).
T1 construct: expressed in transfected cells; host or cells: human 293/Phoenix cells
Nature of the series: cell-based screen, 293/Phoenix cells transiently transfected with TDO (selectivity). To be noted: IDO versus TDO2. How it is done:
FIGS. 27A-27C provide a chart of certain IDO inhibitors, their structures, and their ability to inhibit IDO and TDO activity at a concentration of 250 μM in a cell-based assay.
The candidate compounds were also screened in a cell-based assay (for similar assay see Munn et al. (1999) J. Exp. Med. 189:1363-1372). Briefly, human 293/Phoenix cells were transiently transfected with human IDO or TDO cDNA expression vectors. The candidate compounds were added to the transfected cells at various concentrations. Kynurenine was quantitated in tissue culture media using a fluorescence-based protocol.

For another series, the system named is IDO. Particulars: cited from earlier work; for potency ranking as IDO inhibitor (literature): Peterson et al. 1993, 1994.
Series [2] deals with established tumors in MMTVneu "oncomouse" model. In words: MMTVneu transgenic oncomouse model of breast cancer, change in tumor volume over two weeks. Type of series: in vivo, mouse. To be noted: for effect on tumor growth: two week course, 1MT 20 mg/day s.c. time-release pellets, cytotoxics i.v. at maximum-tolerated doses. An excerpt: The MMTVneu transgenic “oncomouse” model of breast cancer was used to measure the effects of IDO inhibitors and STIs on tumor pathophysiology. The MMTVneu transgenic mouse develops aggressive tumors of the mammary gland that resemble poorly differentiated human ductal carcinomas. In the MMTVneu mouse model, breast cancer is initiated by tissue-specific expression of a mutant form of the HER-2/Neu gene that is activated frequently in aggressive human breast ductal carcinomas. HER-2 is a member of the EGF-R family of cell surface growth factor receptors. Myc is an obligate downstream effector for HER-2/Neu to drive cancer. Female MMTVneu “oncomice” are mated twice to initiate expression from the mouse mammary tumor virus (wry) promoter which drives transcription of the Neu/HER2 oncogene in mammary tissue. Mammary tumors arise with a penetrance of >90% in this model system by 5 months of age. MMTVneu “oncomice” bearing similarly sized tumors of ˜150 mm^3 were randomly assigned to control or experimental treatment groups. Control mice were implanted with placebo time-release pellets (Innovative Research, Inc., Sarasota, Fla.).
The time-release pellets are composed of a copolymer which is inert and gradually dissolves and breaks down to a non-toxic substance that remains largely localized during the course of the experiment. […] Two pellets per mouse were implanted to deliver a total dose of 20 mg/day. Therefore, for a 25 g mouse the total dose is 800 mg/kg/day or 280 mg over a 14 day period.
Time-release pellets were introduced subcutaneously on the backs of mice anesthetized by intramuscular injection of ketamin/rompun. Blunt dissection with a hemostat is used to separate the skin from the underlying muscle to create a subcutaneous pocket. One or two biodegradable slow release pellets were implanted within this pocket, rather than directly under the incision in order to prevent mechanical stress and wound dehiscence. The incision was then closed with wound clips.
MMTVneu “oncomice” bearing similarly sized tumors of ˜150 mm^3 were randomly assigned to control or experimental treatment groups. Control mice were implanted with placebo time-release pellets (Innovative Research, Inc., Sarasota, Fla.).
The cytotoxic chemotherapeutic agents were prepared and delivered to the mice as follows. Paclitaxel was dissolved in equal volumes of absolute ethanol and the clinically-used solubilizing agent Cremophor® EL. The solution was sonicated up to 30 minutes and stored as a 20 mg/ml stock solution at 4° C. for up to one week. Before use, this solution was diluted further at 1:5 with sterile physiological saline. Paclitaxel formulated in this manner was administered to mice by a single bolus intravenous (i.v.) injection into the tail vein. Mouse tails can be warmed to facilitate identification and injection of the vein. […] The MTD of cisplatin (1 mg/kg) was obtained as a clinical preparation in saline and delivered as a bolus i.v. injection on the same schedule. Control treated mice received only the Cremophor° EL vehicle formulation without paclitaxel.
Statistical analysis of the tumors of MMTVneu mice after various treatments. Numbers are provided as percent change in tumor volume as compared to the tumor volume prior to treatment.

In series [3] the target is T2, human IDO (Homo sapiens, UniProt P14902). In words: IDO enzyme assay (kynurenine production), enzyme kinetics for Ki. The class given is biochemical.
Protocol: Data were plotted and analyzed using the Prism4 software package (GraphPad).
This assay is also used to determine Ki values for specific compounds, which is important for the development of SAR (structure activity relationship) around the different compound series.
Kynurenine production can be measured at 1 hour. More extensive enzyme kinetic data can be collected for selected compounds of interest.
The target in a further series is T3, intracellular IDO (Homo sapiens, UniProt P14902).
T3 construct: expressed in transfected cells; host or cells: COS-1 cells, CMV promoter-driven plasmid, Lipofectamine 2000
In words: cell-based IDO inhibitor assay, COS-1 cells transiently transfected with IDO cDNA, dose escalation.

Series [4] has as its target T2, human IDO. In words: cell-based screen, 293/Phoenix cells transiently transfected with human IDO, kynurenine in media.
Series [5] can be described thus: HPLC analysis of mouse serum for compound level. The class given is in vivo. Particulars: 2×140 mg 1MT pellets implanted subcutaneously, 3 days, male FVB mice. An excerpt:
Protein was removed by TCA precipitation.

Another series deals with allogenic conceptus. Nature of the series: allogeneic conceptus rejection in mice. Particulars: 20 mg/day from two time-release pellets; unpublished results. The class given is in vivo, mouse. How it is done:
The time-release pellets are composed of a copolymer which is inert and gradually dissolves and breaks down to a non-toxic substance that remains largely localized during the course of the experiment. […] Two pellets per mouse were implanted to deliver a total dose of 20 mg/day. Therefore, for a 25 g mouse the total dose is 800 mg/kg/day or 280 mg over a 14 day period. Steady-state levels were reached within 12-24 hours and are maintained throughout the entire period based on the manufacturer's specifications.

For series [6] the following is noted: time-release pellets, manufacturer's specifications; cited from earlier work.
For series [7], the system named is tumor growth in a mouse model. To be noted: Friberg et al. 2002; U.S. Pat. No. 6,482,416; cited from earlier work.
[8] abbreviates: compared to the tumor volume prior to treatment, two weeks.

Each structure is given as a SMILES string.

T1 sequence (P48775 whole entry): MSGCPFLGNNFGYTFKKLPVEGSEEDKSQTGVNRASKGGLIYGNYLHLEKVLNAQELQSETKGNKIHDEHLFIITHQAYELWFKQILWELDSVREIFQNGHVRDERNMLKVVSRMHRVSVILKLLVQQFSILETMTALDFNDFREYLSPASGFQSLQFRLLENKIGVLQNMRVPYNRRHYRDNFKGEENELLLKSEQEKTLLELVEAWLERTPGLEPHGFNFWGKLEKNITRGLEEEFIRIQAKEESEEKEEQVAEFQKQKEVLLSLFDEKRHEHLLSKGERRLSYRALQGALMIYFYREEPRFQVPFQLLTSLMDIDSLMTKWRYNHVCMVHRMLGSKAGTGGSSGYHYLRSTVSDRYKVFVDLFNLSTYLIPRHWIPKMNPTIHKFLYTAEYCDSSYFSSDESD
T2 sequence (P14902 whole entry): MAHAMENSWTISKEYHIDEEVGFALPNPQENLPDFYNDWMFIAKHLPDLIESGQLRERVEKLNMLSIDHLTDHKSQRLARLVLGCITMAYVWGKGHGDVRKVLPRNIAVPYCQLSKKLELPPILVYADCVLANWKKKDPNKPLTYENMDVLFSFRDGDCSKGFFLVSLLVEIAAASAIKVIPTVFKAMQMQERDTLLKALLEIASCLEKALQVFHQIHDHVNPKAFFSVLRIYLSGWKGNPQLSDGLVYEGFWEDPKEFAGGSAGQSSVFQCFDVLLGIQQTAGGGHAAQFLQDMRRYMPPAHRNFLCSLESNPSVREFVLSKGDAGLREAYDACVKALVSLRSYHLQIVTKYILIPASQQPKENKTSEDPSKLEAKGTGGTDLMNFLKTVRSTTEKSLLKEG
T3 sequence (P14902 whole entry): as above
Protocol for intracellular IDO: COS-1 cells are transiently transfected with a CMV promoter-driven plasmid expressing IDO cDNA using Lipofectamine 2000 (Invitrogen) as recommended by the manufacturer. […] The following day the wells are washed and new media (phenol red free) containing 20 μg/ml tryptophan is added together with inhibitor.

`C=CCN1C(=O)C(Cc2c[nH]c3ccccc23)NC1=S` (centres unmarked) [N-allyl, 3-(N-allyl-thiohydantoin)-indole]: the “selectivity over tryptophan 2,3-dioxygenase (TDO2)” value (“selectivity” for short) in series [1] is on record as “significant selectivity”.
With `CCCCc1cc2c(cn1)[nH]c1ccccc12` [3-butyl-β-carboline], the “potency ranking as IDO inhibitor (literature)” value in the series on IDO is “most active derivative”.
Regarding `N.N.[Cl][Pt][Cl]` [cisplatin], in [2] (setting [8]), the “Maximum percent change in tumor volume” value came to 255.6%, the “Mean percent change in tumor volume” value was determined as 91.35%, the “Median percent change in tumor volume” value is 40% and the “Minimum percent change in tumor volume” value was −26.53%. Besides, the “effect on tumor growth” value in [2] is given as “retarded but did not block tumor growth”.
`CN1C(=O)C(Cc2c[nH]c3ccccc23)NC1=S` (centres unmarked) [MTH-Trp, 3-(N-methyl-thiohydantoin)-indole]: the “potency of direct IDO enzyme inhibition relative to 1MT” value on human IDO [3] (compared with 1MT) is given as “about 3 fold”. In addition, the Ki on human IDO [3] (human IDO, global nonlinear regression of enzyme kinetic data, read-out: Best fit values of Ki) was found to be 11.4 µM. This compound yielded an EC50 on intracellular IDO (COS-1 cells expressing IDO, 5 hours, 20 μg/ml tryptophan) of 12.9 µM. Moreover, the “potency against intracellular IDO relative to 1MT” value at intracellular IDO (compared with 1MT) is recorded as ~20 fold. At human IDO [4] (at a concentration of 250 μM, compared with 1MT), the “inhibition of IDO activity relative to 1MT” value stood at 2.7 times. For the same compound, the “potency ranking among screened compounds” value on human IDO [4] (cell-based screen) is “most potent of these inhibitors”. The “selectivity” value in series [1] is “significant selectivity”.
Take `c1ccc2c(c1)[nH]c1sncc12` [brassilexin]: in the series on IDO (Peterson et al. 1993), the “mode of IDO inhibition (literature)” value was “noncompetitive inhibitor of IDO”.
Turning to `CC[C@H](C)[C@@H](CO[C@@H](Cc1ccccc1)C(=O)N[C@@H](CCS(C)(=O)=O)C(=O)OC(C)C)NC[C@@H](N)CS` [L-744,832], in [2], the “effect on tumor growth” value is reported as “retarded but did not block tumor growth”.
Regarding `Cn1cc(CC(N)C(=O)O)c2ccccc21` (racemic) [1MT, 1-methyl-DL-tryptophan], the “1MT level in serum” value in series [5] was ~100 µM. Besides, the allogenic conceptus rejection entry in the series with allogenic conceptus is on record as “effective at eliciting allogenic conceptus rejection”. Besides, the “time to steady-state levels” value in series [6] was 12 to 24 h. The “effect on tumor growth (literature)” value in series [7] was “only retarded and did not prevent tumor growth”.
As to `Nc1cc2ccccc2cc1C(=O)O` [3-amino-2-naphthoic acid], the “potency ranking as IDO inhibitor (literature)” value in the series on IDO is listed as “most potent IDO inhibitor”.
For the compound `O=C1C(Cc2c[nH]c3ccccc23)NC(=S)N1c1ccccc1` (centres unmarked) [N-phenyl, 3-(N-phenyl-thiohydantoin)-indole], the “selectivity” value in [1] is “significant selectivity”.
On to `CC(=O)O[C@H]1C(=O)[C@@]2(C)[C@H]([C@H](OC(=O)c3ccccc3)[C@]3(O)C[C@H](OC(=O)[C@H](O)[C@@H](NC(=O)c4ccccc4)c4ccccc4)C(C)=C1C3(C)C)[C@]1(OC(C)=O)CO[C@@H]1C[C@@H]2O` [paclitaxel], for which, in series [2] (setting [8]), the “25% Percentile percent change in tumor volume” value is reported as 40.25%, the “75% Percentile percent change in tumor volume” value was determined as 247.6%, the “Maximum percent change in tumor volume” value stood at 360.8% and the “Mean percent change in tumor volume” value is reported as 139.4%. For the same compound, in series [2] (setting [8]), the “Median percent change in tumor volume” value is on record as 130.4% and the “Minimum percent change in tumor volume” value is given as 20%. In series [2], the “effect on tumor growth” value is “retarded but did not block tumor growth”.

By Ki is commonly meant a measure of affinity in units of concentration, obtained from inhibition or displacement. By EC50 is commonly meant the concentration that produces a half-maximal response. A high value points to lower potency in that assay.

The values above are taken from US8476454B2, “IDO inhibitors and methods of use” (Lankenau Institute for Medical Research, priority 2003, dated 2013).
